Assay results as given in US11702404B2, “GLP-1R modulating compounds” (priority 2019, dated 2023).
Read-outs that look alike come from different tables or passages of the source.

Columns and labels:
GLP-1R = GLP-1R (Homo sapiens, UniProt P43220); test: GLP-1R activation: cAMP increase in CHO cells stably expressing GLP-1R; format: cell-based
[1] = Microsomal stability, human liver microsomes (predicted hepatic clearance); settings: predicted from in vitro microsomal stability data
[2] = cAMP increase, CHO cells stably expressing GLP-1R, 10 point dose response, 30 minutes incubation, read-out: EC50

GLP-1R, sequence (P43220 24-463): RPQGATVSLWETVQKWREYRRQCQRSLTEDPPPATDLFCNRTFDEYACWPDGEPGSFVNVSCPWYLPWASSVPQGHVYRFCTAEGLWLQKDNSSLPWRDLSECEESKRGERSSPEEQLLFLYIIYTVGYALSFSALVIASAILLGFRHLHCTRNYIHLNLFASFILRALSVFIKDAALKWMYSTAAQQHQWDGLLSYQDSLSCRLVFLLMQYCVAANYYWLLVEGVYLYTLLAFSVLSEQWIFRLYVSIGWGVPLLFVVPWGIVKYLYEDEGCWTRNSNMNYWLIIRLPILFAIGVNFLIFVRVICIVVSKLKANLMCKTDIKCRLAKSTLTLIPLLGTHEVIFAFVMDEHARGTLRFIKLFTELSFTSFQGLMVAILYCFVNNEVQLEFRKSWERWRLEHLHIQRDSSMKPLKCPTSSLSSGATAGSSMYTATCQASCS

Compound	EC50 (GLP-1R; [2]) [nM]	Predicted Hepatic Clearance (Pred. Cl.) [1] [mL/min/kg]	EC50 (GLP-1R; EC50 (nM)) [nM]
COCCn1c(Cc2cc(F)c(-c3cccnc3OCc3ccc(C#N)cc3F)cc2F)nc2ccc(C(=O)O)cc21 [Example 211, 2-(4-(2-((4-cyano-2-fluorobenzyl)oxy)pyridin-3-yl)-2,5-difluorobenzyl)-1-(2-methoxyethyl)-1H-benzo[d]imidazole-carboxylic acid]	126	8.17	–
COCCn1c(Cc2ccc(-c3cccc(OCC(=O)c4ccc(Cl)cc4)n3)cc2F)nc2ccc(C(=O)O)cc21 [Example 212, 2-(4-(6-(2-(4-Chlorophenyl)-2-oxoethoxy)pyridin-2-yl)-2-fluorobenzyl)-1-(2-methoxyethyl)-1H-benzo[d]imidazole-6-carboxylic acid]	80.1	<1.83	–
COCCn1c(Cc2ccc(-c3cccc(OCC(=O)c4ccccc4)n3)cc2F)nc2ccc(C(=O)O)cc21 [Example 214, 2-(2-fluoro-4-(6-(2-oxo-2-phenylethoxy)pyridin-2-yl)benzyl)-1-(2-methoxyethyl)-1H-benzo[d]imidazole-6-carboxylic acid]	745	16.3	–
COCCn1c(Cc2ccc(-c3cccc(OCc4ccc(C#N)nc4)n3)cc2F)nc2ccc(C(=O)O)cc21 [Example 216, 2-(4-(6-((6-cyanopyridin-3-yl)methoxy)pyridin-2-yl)-2-fluorobenzyl)-1-(2-methoxyethyl)-1H-benzo[d]imidazole-6-carboxylic acid]	110	<1.83	–
COCCn1c(Cc2cc(F)c(-c3ccc(F)c(OCc4ccc(C#N)cc4F)n3)cc2F)nc2ccc(C(=O)O)cc21 [Example 217, 2-(4-(6-((4-cyano-2-fluorobenzyl)oxy)-5-fluoropyridin-2-yl)-2,5-difluorobenzyl)-1-(2-methoxyethyl)-1H-benzo[d]imidazole-carboxylic acid]	–	2.75	1.72
COCCn1c(Cc2cc(F)c(-c3cccc(OCc4ccc(C#N)cc4F)n3)cc2F)nc2cc(F)c(C(=O)O)cc21 [Example 218, 2-(4-(6-((4-cyano-2-fluorobenzyl)oxy)pyridin-2-yl)-2,5-difluorobenzyl)-5-fluoro-1-(2-methoxyethyl)-1H-benzo[d]imidazole-6-carboxylic acid]	19.1	7.83	–
N#Cc1ccc(COc2cccc(-c3cc(F)c(Cc4nc5cc(F)c(C(=O)O)cc5n4C[C@@H]4CCO4)cc3F)n2)c(F)c1 [Example 219, (S)-2-(4-(6-((4-cyano-2-fluorobenzyl)oxy)pyridin-2-yl)-2,5-difluorobenzyl)-5-fluoro-1-(oxetan-2-ylmethyl)-1H-benzo[d]imidazole-6-carboxylic acid]	0.69	2.83	–
C[C@@H](C1CC1)n1c(Cc2ccc(-c3cccc(OCc4ccc(C#N)cc4F)n3)cc2F)nc2ccc(C(=O)O)cc21 [Example 220, (S)-2-(4-(6-((4-cyano-2-fluorobenzyl)oxy)pyridin-2-yl)-2-fluorobenzyl)-1-(1-cyclopropylethyl)-1H-benzo[d]imidazole-6-carboxylic acid]	37.8	6.5	–
N#Cc1ccc(COc2cccc(-c3ccc(Cc4nc5cc(F)c(C(=O)O)cc5n4CC4(CF)CC4)c(F)c3)n2)c(F)c1 [Example 221, 2-(4-(6-((4-cyano-2-fluorobenzyl)oxy)pyridin-2-yl)-2-fluorobenzyl)-5-fluoro-1-((1-(fluoromethyl)cyclopropyl)methyl)-1H-benzo[d]imidazole-6-carboxylic acid]	5.28	3.5	–
C[C@H](C1CC1)n1c(Cc2ccc(-c3cccc(OCc4ccc(C#N)cc4F)n3)cc2F)nc2ccc(C(=O)O)cc21 [Example 222, (R)-2-(4-(6-((4-cyano-2-fluorobenzyl)oxy)pyridin-2-yl)-2-fluorobenzyl)-1-(1-cyclopropylethyl)-1H-benzo[d]imidazole-6-carboxylic acid]	6.79	5	–
N#Cc1ccc(COc2cccc(-c3ccc(Cc4nc5ccc(C(=O)O)cc5n4C4CCC4)c(F)c3)n2)c(F)c1 [Example 223, 2-(4-(6-((4-cyano-2-fluorobenzyl)oxy)pyridin-2-yl)-2-fluorobenzyl)-1-cyclobutyl-1H-benzo[d]imidazole-6-carboxylic acid]	16.4	3.5	–
N#Cc1ccc(COc2cccc(-c3ccc(Cc4nc5cccc(C(=O)O)c5n4CC4(CF)CC4)c(F)c3)n2)c(F)c1 [Example 224, 2-(4-(6-((4-cyano-2-fluorobenzyl)oxy)pyridin-2-yl)-2-fluorobenzyl)-1-((1-(fluoromethyl)cyclopropyl)methyl)-1H-benzo[d]imidazole-7-carboxylic acid]	23.6	7.5	–
N#Cc1ccc(COc2cccc(-c3ccc(Cc4nc5ccc(C(=O)O)cc5n4[C@@H]4CCOC4)c(F)c3)n2)c(F)c1 [Example 225, (R)-2-(4-(6-((4-cyano-2-fluorobenzyl)oxy)pyridin-2-yl)-2-fluorobenzyl)-1-(tetrahydrofuran-3-yl)-1H-benzo[d]imidazole-6-carboxylic acid]	13.1	3.5	–

The next lines start with results.

EC50 (GLP-1R; [2]) [nM]	Predicted Hepatic Clearance (Pred. Cl.) [1] [mL/min/kg]	Compound	EC50 (GLP-1R; EC50 (nM)) [nM]
139	3.67	Cn1nnc(Cn2c(Cc3ccc(-c4cccc(OCc5ccc(C#N)cc5F)n4)cc3F)nc3ccc(C(=O)O)cc32)n1 [Example 226, 2-(4-(6-((4-cyano-2-fluorobenzyl)oxy)pyridin-2-yl)-2-fluorobenzyl)-1-((2-methyl-2H-tetrazol-5-yl)methyl)-1H-benzo[d]imidazole-6-carboxylic acid]	–
4.87	4.83	COCCn1c(Cc2ccc(-c3cccc(OCc4ccc(C#N)cc4F)n3)cc2C#CC2CC(F)(F)C2)nc2ccc(C(=O)O)cc21 [Example 228, 2-(4-(6-((4-cyano-2-fluorobenzyl)oxy)pyridin-2-yl)-2-((3,3-difluorocyclobutyl)ethynyl)benzyl)-1-(2-methoxyethyl)-1H-benzo[d]imidazole-6-carboxylic acid]	–
35.4	8.67	COCCn1c(Cc2ccc(-c3cccc(OCc4ccc(CC#N)cc4)n3)cc2F)nc2ccc(C(=O)O)cc21 [Example 229, 2-(4-(6-((4-(cyanomethyl)benzyl)oxy)pyridin-2-yl)-2-fluorobenzyl)-1-(2-methoxyethyl)-1H-benzo[d]imidazole-6-carboxylic acid]	–
27.4	12	COCCOCCn1c(Cc2ccc(-c3cccc(OCc4ccc(C#N)cc4F)n3)cc2F)nc2ccc(C(=O)O)cc21 [Example 230, 2-(4-(6-((4-cyano-2-fluorobenzyl)oxy)pyridin-2-yl)-2-fluorobenzyl)-1-(2-(2-methoxyethoxy)ethyl)-1H-benzo[d]imidazole-6-carboxylic acid]	–
35.4	8.17	N#Cc1ccc(COc2cccc(-c3ccc(Cc4nc5ccc(C(=O)O)cc5n4CC45CCC(CC4)O5)c(F)c3)n2)c(F)c1 [Example 231, 1-(7-oxabicyclo[2.2.1]heptan-1-ylmethyl)-2-(4-(6-((4-cyano-2-fluorobenzyl)oxy)pyridin-2-yl)-2-fluorobenzyl)-1H-benzo[d]imidazole-6-carboxylic acid]	–
17.8	18.7	COCCn1c(Cc2ccc(-c3cccc(OCc4ccc(C#N)cc4F)n3)cc2C#CC2(C)COC2)nc2ccc(C(=O)O)cc21 [Example 232, 2-(4-(6-((4-cyano-2-fluorobenzyl)oxy)pyridin-2-yl)-2-((3-methyloxetan-3-yl)ethynyl)benzyl)-1-(2-methoxyethyl)-1H-benzo[d]imidazole-6-carboxylic acid]	–
1.35	10.3	COc1cc(Cl)ccc1COc1nccc(-c2ccc(Cc3nc4ccc(C(=O)O)nc4n3CC3(CF)CC3)cc2F)n1 [Example 233, 2-(4-(2-((4-chloro-2-methoxybenzyl)oxy)pyrimidin-4-yl)-3-fluorobenzyl)-3-((1-(fluoromethyl)cyclopropyl)methyl)-3H-imidazo[4,5-b]pyridine-5-carboxylic acid]	–
6.95	<1.83	COCCn1c(Cc2ccc(-c3cccc(OCc4ccc(C#N)cc4OC(F)F)n3)cc2F)nc2ccc(C(=O)O)cc21 [Example 234, 2-(4-(6-((4-cyano-2-(difluoromethoxy)benzyl)oxy)pyridin-2-yl)-2-fluorobenzyl)-1-(2-methoxyethyl)-1H-benzo[d]imidazole-6-carboxylic acid]	–
317	8.42	COCCn1c(Cc2ccc(-c3cccc(OCc4csc(C#N)c4)n3)cc2F)nc2ccc(C(=O)O)cc21 [Example 235, 2-(4-(6-((5-cyanothiophen-3-yl)methoxy)pyridin-2-yl)-2-fluorobenzyl)-1-(2-methoxyethyl)-1H-benzo[d]imidazole-6-carboxylic acid]	–
306	<1.83	COCCn1c(Cc2ccc(-c3cccc(OCc4ccc(C#N)cc4OCC(F)(F)F)n3)cc2F)nc2ccc(C(=O)O)cc21 [Example 236, 2-(4-(6-((4-cyano-2-(2,2,2-trifluoroethoxy)benzyl)oxy)pyridin-2-yl)-2-fluorobenzyl)-1-(2-methoxyethyl)-1H-benzo[d]imidazole-6-carboxylic acid]	–
19.2	11.2	COCCn1c(Cc2ccc(-c3cccc(OCc4ccc(C#N)cc4F)n3)cc2C#Cc2ccccc2)nc2ccc(C(=O)O)cc21 [Example 237, 2-(4-(6-((4-cyano-2-fluorobenzyl)oxy)pyridin-2-yl)-2-(phenylethynyl)benzyl)-1-(2-methoxyethyl)-1H-benzo[d]imidazole-6-carboxylic acid]	–
